Assay results: patent US20040142971A1, “BENZOTHIOPHENE COMPOUNDS HAVING ANTIINFECTIVE ACTIVITY” (GeneSoft, Inc., priority 2001, published 2004)
Converted amounts (≈) assume the structure as drawn. Like-named read-outs stand apart in the source and are kept apart here.

Tests used:
B. Cereus ATCC 11778 = assay: MIC, NCCLS broth microdilution; assay type: cell-based, Bacillus cereus; conditions: for MIC: Bacillus cereus
Method in brief: (§1)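 MIC determined by broth microdilution in microtiter plates following NCCLS guidelines (documents M7-A4, M11-A4 and M27-T).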

[1] = system: E. faecium ATCC 51559 (vancomycin resistant strain, VRE); assay: MIC, NCCLS broth microdilution; assay type: cell-based, Enterococcus faecium; conditions: Enterococcus faecium, read-out: Minimum Inhibitory Concentration (MIC)
Method in brief: as §1

[2] = system: S. aureus ATCC 13709 (methicillin sensitive strain, MSSA); assay: MIC, NCCLS broth microdilution; assay type: cell-based, Staphylococcus aureus; conditions: for MIC: Staphylococcus aureus, read-out: Minimum Inhibitory Concentration (MIC)
Method in brief: as §1

[3] = system: S. aureus ATCC 27660 (methicillin resistant strain, MRSA); assay: MIC, NCCLS broth microdilution; assay type: cell-based, Staphylococcus aureus; conditions: for MIC: Staphylococcus aureus, read-out: Minimum Inhibitory Concentration (MIC)
Method in brief: as §1

S. aureus ATCC 33591 = assay: MIC, NCCLS broth microdilution; assay type: cell-based, Staphylococcus aureus; conditions: Staphylococcus aureus
Method in brief: as §1

S. aureus ATCC 43300 = assay: MIC, NCCLS broth microdilution; assay type: cell-based; conditions: Staphylococcus aureus, ATCC43300, read-out: Minimum Inhibitory Concentration (MIC)
Excerpt: (§2) In vitro biological activity data were collected for a variety of microorganisms, including Bacillus cereus (ATCC 11778), Staphylococcus aureus (ATCC 27660 (a methicillin resistant strain (MRSA), ATCC 33591 and ATCC 43300); ATCC 13709, a methicillin sensitive strain (MSSA)); Streptococcus pneumoniae (ATCC 51422, a penicillin resistant strain (PRSP)), Enterococcus faecium (ATCC 51559, a vancomycin resistant strain (VRE)), and Staphylococcus epidermidis (ATCC 700586, a methycillin resistant strain (MRSE)). Additionally, antifungal activity data were collected for Candida albicans (ATCC 38247). Minimal inhibition concentrations (MIC's) were determined using the National Committee for Clinical Laboratory Standards (NCCLS) broth microdilution assay in microtiter plates, as set forth in: (1) the guidelines of the National Committee for Clinical Laboratory Standards (NCCLS) Document M7-A4 (NCCLS, 1997); (2) the guidelines of the National Committee for Clinical Laboratory Standards (NCCLS) Document M11-A4 (NCCLS, 1997); and (3) the guidelines and reference method of the National Committee for Clinical Laboratory Standards (NCCLS) Document M27-T (NCCLS, 1995). For antifungal essays, the method recommended in Murray, PR., 1995 Manual of Clinical Microbiology (ASM Press, Washington, D.C.), was employed.

[4] = system: S. epidermidis ATCC 700586 (methycillin resistant strain, MRSE); assay: MIC, NCCLS broth microdilution; assay type: cell-based, Staphylococcus epidermidis; conditions: Staphylococcus epidermidis, read-out: Minimum Inhibitory Concentration (MIC)
Method in brief: as §1

[5] = system: S. pneumoniae ATCC 51422 (penicillin resistant strain, PRSP); assay: MIC, NCCLS broth microdilution; assay type: cell-based, Streptococcus pneumoniae; conditions: Streptococcus pneumoniae, read-out: Minimum Inhibitory Concentration (MIC)
Excerpt: as §2

[6] = system: Candida albicans (ATCC 38247); assay: Antifungal MIC; assay type: cell-based
Excerpt: as §2, with “employed. The results are presented in Table A below, which is keyed as follows: […]” for “employed.”

[7] = system: methycillin resistant Staphylococcus aureus ATCC 33591; assay: Murine neutropenic thigh model; assay type: in vivo, mice; conditions: 50 mg/kg intravenously two hours post infection, 6 hr after treatment
Description: A S. aureus ATCC 33591 culture was grown to log phase overnight and diluted in phosphate buffered saline (pH 7.2) to an optical density of about 0.1 at 600 nm, giving an approximate concentration of 10^8 cfu/mL. The suspension was diluted 1:100 in phosphate buffered saline (pH 7.2) for a final concentration of 10^6 cfu/mL.
Outbred female CF1 mice (approx. 20 gram body weight) were rendered neutropenic by treatment with cyclophosphamide (200 mg/kg body weight, intraperitoneal injection) at 2 and 4 days prior to inoculation. Groups of 5 mice were inoculated with 0.05 mL of the bacteria (approx. 10^6 cfu/mL) into the anterior thigh. Each group was treated intravenously two hours post infection with vehicle (phosphate buffered saline) or test compound. The mice were sacrificed at either 6 or 24 hrs after treatment and thighs were collected aseptically. Each thigh was weighed, placed into sterile saline, and homogenized. The tissue homogenates were diluted appropriately for plating on agar plates. Colony counts were recorded (cfu/gram) and compared to control groups.
In vivo efficacy was shown by a decrease in colony count (log cfu/gram of tissue) in the compound-treated animals when compared against the colony count in animals given only the vehicle.

Cn1cc(NC(=O)c2cc(NC(=O)c3cc(NC(=O)c4sc5ccccc5c4Cl)cn3C)cn2C)cc1C(=O)NCCN1CCOCC1 [Ib-1]
MIC (B. Cereus ATCC 11778; ATCC11778, read-out: Minimum Inhibitory Concentration (MIC)): < 4 µg/mL | MIC [1]: < 4 µg/mL | MIC [2]: < 4 µg/mL | MIC [3]: < 4 µg/mL | MIC (S. aureus ATCC 33591; ATCC33591, read-out: Minimum Inhibitory Concentration (MIC)): < 4 µg/mL | MIC (S. aureus ATCC 43300): < 4 µg/mL | MIC [4]: < 4 µg/mL | MIC [5]: < 4 µg/mL

Cn1cc(NC(=O)c2cc(NC(=O)c3cc(NC(=O)c4sc5ccccc5c4Cl)c[nH]3)cn2C)cc1C(=O)NCCN1CCCC1 [Ib-48]
MIC (B. Cereus ATCC 11778; ATCC11778, A = B. Cereus ATCC 11778, read-out: Minimum Inhibitory Concentration (MIC)): < 4 µg/mL | MIC ([1]; B = E. faecium ATCC 51559): 4 to 12 µg/mL (≈ 6.05 to 18.1 µM) | MIC ([2]; C = S. aureus ATCC 13709): < 4 µg/mL | MIC ([3]; D = S. aureus ATCC 27660): < 4 µg/mL | MIC (S. aureus ATCC 33591; ATCC33591, E = S. aureus ATCC 33591, read-out: Minimum Inhibitory Concentration (MIC)): < 4 µg/mL | MIC ([4]; G = S. epidermidis ATCC 700586): < 4 µg/mL | MIC ([5]; H = S. pneumoniae ATCC 51422): < 4 µg/mL | MIC ([6]; ATCC38247, read-out: MIC): < 4 µg/mL | Colony Count (log cfu/gram) Compound [7]: 4.74 log cfu/gram

Cn1cc(NC(=O)c2cc(NC(=O)c3cc(NC(=O)c4cc5ccccc5cn4)c[nH]3)cn2C)cc1C(=O)NCCN1CCOCC1 [Ib-50]
Minimum Inhibitory Concentration (MIC) (B. Cereus ATCC 11778; A = B. Cereus ATCC 11778): +++ (+++ = MIC ≦ 4) | Minimum Inhibitory Concentration (MIC) ([2]; C = S. aureus ATCC 13709): +++ (+++ = MIC ≦ 4) | Minimum Inhibitory Concentration (MIC) ([3]; D = S. aureus ATCC 27660): +++ (+++ = MIC ≦ 4) | MIC [6]: ++ (++ = MIC between 4 and 12) | Colony Count (log cfu/gram) Compound [7]: 7.97 log cfu/gram
